Here are results for 85 compounds from ChEMBL document CHEMBL1139474, “Cellular apoptosis and cytotoxicity of phenolic compounds: a quantitative structure-activity relationship study” (J Med Chem, 2005).

Series [1] has as its system L1210. Put plainly: Cytotoxicity against mouse L1210 cells. Particulars: mouse, l1210.
Series [2] concerns L1210. The experiment in a line: Activity against caspase-mediated apoptosis in mouse L1210 cells. The series is classed as functional.
In series [3] the test system is L1210. The experiment in a line: Activity against caspase-mediated apoptosis in mouse L1210 cells at 0.1 mM. The series is classed as functional.

As for `COc1cc(/C=C/C=O)cc(OC)c1O`, the “log(1/ID50)” value in series [1] is 4.25; in series [2], 2.6.
On to `Cc1cccc(C)c1O`, for which, in series [1], the “log(1/ID50)” value was 3.02.
With `N#Cc1cccc(O)c1`, the Activity in series [3] was below 15%. The figures for the “log(1/ID50)” value in series [1] and in series [2] were 3.11 and 1.11, respectively.
As for `CCCCCCCCCc1ccc(O)cc1` [4-NONYLPHENOL], the Activity in series [3] is given as below 15%. Besides, in series [1], the “log(1/ID50)” value is 4.75.
With `COc1cc(C)cc(OC)c1O`, the “log(1/ID50)” value in series [1] was 2.89; in series [2], 2.4.
For `Cc1cccc(O)c1` [METACRESOL], the Activity in series [3] is on record as below 15%. Moreover, the entries for the “log(1/ID50)” value in series [1] and in series [2] were 3.54 and 0.45, respectively.
Consider `COc1cc(N)cc(OC)c1O`, for which the “log(1/ID50)” value in series [1] is listed as 5.52; in series [2] it was 3.1.
The corresponding values for `COc1cc(C(C)(C)C)c(O)c(C(C)(C)C)c1` are 3.71 and 2.87.
The matching figures for `CC(C)(C)c1cc([N+](=O)[O-])cc(C(C)(C)C)c1O`: 4.9 and 2.49.
For the compound `CC(C)c1cccc(C(C)C)c1O` [PROPOFOL], in series [1], the “log(1/ID50)” value came to 3.25.
On to `Cc1ccc(O)c(N)c1`, for which the “log(1/ID50)” value in series [2] is 2.09.
Turning to `CC(C)(C)c1cc(C#N)cc(C(C)(C)C)c1O`, the “log(1/ID50)” value was determined as 4.68 in series [1] and 2.88 in series [2].
For the compound `CCCCCc1ccc(O)cc1`, the Activity in series [3] is listed as below 15%. Moreover, the “log(1/ID50)” value in series [1] turned out to be 4.47.
With `CC(C)(C)c1cc(CO)cc(C(C)(C)C)c1O`, the “log(1/ID50)” value in series [1] turned out to be 3.88; in series [2], 2.39.
Turning to `CCc1ccc(O)c(C(C)(C)C)c1`, the “log(1/ID50)” value in series [1] stood at 3.8.
Take `COc1cc(C(C)=O)cc(OC)c1O` [ACETOSYRINGONE]: the “log(1/ID50)” value in series [1] was 3.06; in series [2], 2.8.
With `Cc1ccc(O)c(C)c1`, the “log(1/ID50)” value in series [1] was 3.04.
On to `CC(=O)Oc1cc(C(C)(C)C)c(O)c(C(C)(C)C)c1`, for which the figures for the “log(1/ID50)” value in series [1] and in series [2] were 4.35 and 2.8, respectively.
On to `CCCc1ccccc1O`, for which the Activity in series [3] is recorded as below 15%. Moreover, the “log(1/ID50)” value in series [1] is on record as 3.49; in series [2], 2.16.
`Oc1ccccc1C(F)(F)F` gave an Activity in series [3] below 15%. Moreover, the “log(1/ID50)” value in series [1] is on record as 3.22.
In the case of `CC(C)(C)c1cc(C(C)(C)C)c(O)c(C(C)(C)C)c1`, the “log(1/ID50)” value is 5.05 in series [1] and 2.1 in series [2].
In the case of `Cc1cc(Br)ccc1O`, in series [1], the “log(1/ID50)” value was 3.46.
For `O=[N+]([O-])c1cccc(O)c1` [3-NITRO-PHENOL], in series [3], the Activity was below 15%. For the same compound, the “log(1/ID50)” value amounted to 3.48 in series [1] and 0.79 in series [2].
Compound `CC(C)(C)c1cccc(O)c1` registered an Activity in series [3] below 15%. For the same compound, the “log(1/ID50)” value in series [1] stood at 3.88.
`Oc1ccc(Br)cc1` returned an Activity in series [3] below 15%.
Turning to `CC(C)(C)c1ccc(O)c(C(C)(C)C)c1`, the “log(1/ID50)” value in series [1] is listed as 4.24.
In series [3], `CC(C)Cc1ccccc1O` returned an Activity below 15%. The “log(1/ID50)” value in series [1] is given as 3.9.
In series [3], `CC(C)c1ccccc1O` yielded an Activity below 15%. Besides, the “log(1/ID50)” value in series [1] was found to be 3.5; in series [2] it was 2.38.
`CCCCOc1ccc(O)cc1` showed an Activity in series [3] below 15%. The results for the “log(1/ID50)” value in series [1] and in series [2] were 5.2 and 0.14, respectively.
For `NC(=O)Nc1ccccc1O`, the Activity in series [3] is on record as below 15%. The “log(1/ID50)” value in series [1] is recorded as 3.5.
For the compound `COc1ccc(O)c(C)c1`, the “log(1/ID50)” value in series [1] is 3.39.
Consider `Nc1cc([N+](=O)[O-])ccc1O` [2-AMINO-4-NITROPHENOL], for which the “log(1/ID50)” value in series [2] came to 2.46.
In series [3], `CC(C)(C)c1ccc(O)cc1.Cl` came in with an Activity below 15%.
Consider `COc1cc(OC)c(O)c(OC)c1`, for which, in series [2], the “log(1/ID50)” value is on record as 2.2.
In the case of `COCc1cc(C(C)(C)C)c(O)c(C(C)(C)C)c1`, the “log(1/ID50)” value in series [1] is given as 3.93; in series [2], 2.9.
The compound `CCCCCCCc1ccc(O)cc1` registered an Activity in series [3] below 15%. In series [1], the “log(1/ID50)” value turned out to be 4.49.
Compound `Oc1cccc(F)c1` yielded an Activity in series [3] below 15%. Moreover, the “log(1/ID50)” value in series [1] was 3.46; in series [2] it was 0.82.
The matching figures for `COc1cccc(O)c1` [1-hydroxy-3-methoxybenzene]: below 15%, 3.71 and 1.31.
In the case of `CSc1ccccc1O`, the Activity in series [3] is recorded as below 15%. Moreover, the “log(1/ID50)” value in series [1] was found to be 3.7.
Take `Oc1ccccc1I`: the Activity in series [3] is given as below 15%. In addition, the results for the “log(1/ID50)” value in series [1] and in series [2] were 3.95 and 2.38, respectively.
The compound `CC(C)(C)c1ccc(O)cc1` gave an Activity in series [3] below 15%.
Compound `Oc1cccc(O)c1` [RESORCINOL] showed an Activity in series [3] below 15%. The entries for the “log(1/ID50)” value in series [1] and in series [2] were 3.46 and 0.79, respectively.
Consider `Cc1cc([N+](=O)[O-])ccc1O`, for which the “log(1/ID50)” value in series [1] is 3.49.
For the compound `Oc1cccc(Br)c1`, the Activity in series [3] is given as below 15%. Moreover, the “log(1/ID50)” value was 3.82 in series [1] and 1 in series [2].
For `CC(C)(C)c1cccc(C(C)(C)C)c1O`, the “log(1/ID50)” value was 3.85 in series [1] and 1.9 in series [2].
With `CCCCc1ccc(O)cc1`, the Activity in series [3] is recorded as below 15%. Also, the “log(1/ID50)” value in series [1] came to 4.33.
The matching figures for `CC(=O)Nc1ccc(O)cc1` [ACETAMINOPHEN]: below 15% and 3.73.
The corresponding values for `CN(C)c1cccc(O)c1` are below 15% and 4.11.
The matching figures for `Oc1ccccc1Cl` [2-CHLOROPHENOL]: below 15% and 3.22.
In the case of `COc1cc(NC(C)=O)cc(OC)c1O`, the “log(1/ID50)” value in series [1] amounted to 3.99; in series [2], 2.5.
With `COc1cccc(OC)c1O` [SYRINGOL], the “log(1/ID50)” value in series [1] stood at 3.86; in series [2] it was 2.7.
In the case of `Cc1ccc(O)c(C(C)(C)C)c1`, the “log(1/ID50)” value in series [1] was 3.8.
Turning to `N#Cc1ccc(O)cc1` [4-CYANOPHENOL], the Activity in series [3] is below 15%. The “log(1/ID50)” value was determined as 3.44 in series [1] and 0.1 in series [2].
For the compound `CC(C)(C)c1cc(O)cc(C(C)(C)C)c1O`, the “log(1/ID50)” value was 4.16 in series [1] and 2.5 in series [2].
The corresponding values for `CC(C)(C)c1cc(C=O)cc(C(C)(C)C)c1O` are 4.06 and 2.49.
For `COc1ccccc1O` [GUAIACOL], in series [3], the Activity is reported as below 15%. In addition, in series [2], the “log(1/ID50)” value was 2.41.
In the case of `N#Cc1ccccc1O`, in series [3], the Activity is below 15%. In addition, the “log(1/ID50)” value in series [1] was 3.3.
The corresponding values for `Oc1ccc(F)cc1` are below 15% and 3.83.
The compound `Nc1cccc(O)c1` [3-AMINOPHENOL] yielded an Activity in series [3] below 15%. For the same compound, the “log(1/ID50)” value in series [2] was found to be 1.25.
Regarding `Cc1cc(F)ccc1O`, in series [1], the “log(1/ID50)” value is on record as 3.09.
As to `Oc1ccc(O)cc1` [HYDROQUINONE], the Activity in series [3] is given as below 15%. In series [1], the “log(1/ID50)” value worked out at 4.59.
`CC(=O)c1ccc(O)cc1` [4-HYDROXYACETOPHENONE]: in series [3], the Activity is given as below 15%. For the same compound, in series [2], the “log(1/ID50)” value is 0.03.
For the compound `CCc1cc(C(C)(C)C)c(O)c(C(C)(C)C)c1`, the “log(1/ID50)” value in series [1] was 3.91; in series [2], 2.43.
`Oc1ccccc1Br` returned an Activity in series [3] below 15%. Also, the “log(1/ID50)” value in series [1] came out at 3.44.
Take `CC(=O)c1cc(C(C)(C)C)c(O)c(C(C)(C)C)c1`: the “log(1/ID50)” value was found to be 3.94 in series [1] and 2.41 in series [2].
As to `O=Cc1ccc(O)cc1` [4-HYDROXYBENZALDEHYDE], the Activity in series [3] was below 15%. Besides, the “log(1/ID50)” value in series [1] is 3.08.
In series [3], `Nc1ccccc1O` [QUESTIOMYCIN B] gave an Activity below 15%. Also, the “log(1/ID50)” value in series [1] came out at 5.16; in series [2], 2.29.
`Cc1ccccc1O` [ORTHOCRESOL] returned an Activity in series [3] below 15%. Also, the “log(1/ID50)” value in series [1] amounted to 3.52; in series [2] it was 1.87.
Consider `CCc1cccc(O)c1`, for which, in series [3], the Activity was below 15%. Besides, in series [1], the “log(1/ID50)” value worked out at 3.71.
Regarding `CC(=O)Nc1cccc(O)c1` [METACETAMOL], the Activity in series [3] is below 15%. The “log(1/ID50)” value was determined as 2.65 in series [1] and 1.1 in series [2].
For `COc1cc(C=O)cc(OC)c1O` [SYRINGALDEHYDE], the entries for the “log(1/ID50)” value in series [1] and in series [2] were 3.1 and 2.9, respectively.
The compound `Oc1ccccc1O` [CATECHOL] yielded an Activity in series [3] below 15%. The “log(1/ID50)” value in series [1] is 3.75.
`Cc1ccc(O)c(O)c1`: the “log(1/ID50)” value in series [1] is 5.03.
On the same count and under the same terms, to `Cc1cc(C)c(O)c(C)c1` belongs 3.2.
As for `Oc1ccccc1F`, the Activity in series [3] is given as below 15%. Moreover, the “log(1/ID50)” value in series [1] is reported as 3.2.
On to `Cc1cccc(C(C)(C)C)c1O`, for which the “log(1/ID50)” value in series [1] was 3.73.
Same read-out and setting: to `CC(=O)c1ccc(O)c(C)c1` belongs 3.14.
On the same count and under the same terms, to `CCc1cccc(CC)c1O` belongs 3.26.
For the compound `CCc1ccccc1O`, the Activity in series [3] was below 15%. The “log(1/ID50)” value in series [2] was determined as 2.11.
As for `Oc1cccc(Cl)c1`, the Activity in series [3] is recorded as below 15%.
Regarding `Cl.Nc1cccc(O)c1` [3-AMINOPHENOL HYDROCHLORIDE], the Activity in series [3] was below 15%. Moreover, the “log(1/ID50)” value in series [1] is 4.11.
The matching figures for `COc1ccccc1O.Cl` [GUAIACOL HYDROCHLORIDE]: below 15% and 3.78.
The matching figures for `OCc1ccccc1O` [SALICYL ALCOHOL]: below 15% and 2.7.
The matching figures for `CCOc1ccccc1O` [1-hydroxy-2-ethoxybenzene]: below 15% and 3.25.
With `O=[N+]([O-])c1ccccc1O` [NITROPHENOLATE], the Activity in series [3] was below 15%. In series [1], the “log(1/ID50)” value was 3.34.
